Assays:
[1] = molecular target: T1, HCV NS5B RdRp genotype 1b (Hepatitis C virus genotype 1b, UniProt Q9WMX2); experiment: HCV NS5B RdRp enzyme assay (standard / modified); assay type: biochemical; conditions: HCV NS5B genotype 1b
T1 construct: The protein was expressed with an 18 amino acid C-terminal truncation to enhance the solubility; made in house; host or cells: E. coli BL21(DE3), pET21a vector
Method: HCV NS5B RdRp cloning, expression, and purification. The cDNA encoding the NS5B protein of HCV, genotype 1b, was cloned into the pET21a expression vector. The protein was expressed with an 18 amino acid C-terminal truncation to enhance the solubility. The E. coli competent cell line BL21(DE3) was used for expression of the protein. Cultures were grown at 37° C. for ˜4 hours until the cultures reached an optical density of 2.0 at 600 nm. The cultures were cooled to 20° C. and induced with 1 mM IPTG. Fresh ampicillin was added to a final concentration of 50 μg/ml and the cells were grown overnight at 20° C.
Cell pellets (3 L) were lysed for purification to yield 15-24 mgs of purified NS5B. The lysis buffer consisted of 20 mM Tris-HCl, pH 7.4, 500 mM NaCl, 0.5% triton X-100, 1 mM DTT, 1 mM EDTA, 20% glycerol, 0.5 mg/ml lysozyme, 10 mM MgCl2, 15 ug/ml deoxyribonuclease I, and Complete™ protease inhibitor tablets (Roche). After addition of the lysis buffer, frozen cell pellets were resuspended using a tissue homogenizer. To reduce the viscosity of the sample, aliquots of the lysate were sonicated on ice using a microtip attached to a Branson sonicator. The sonicated lysate was centrifuged at 100,000×g for 1 hr at 4° C. and filtered through a 0.2 μm filter unit (Corning).
The protein was purified using three sequential chromatography steps: Heparin sepharose CL-6B, polyU sepharose 4B, and Hitrap SP sepharose (Pharmacia). The chromatography buffers were identical to the lysis buffer but contained no lysozyme, deoxyribonuclease I, MgCl2 or protease inhibitor and the NaCl concentration of the buffer was adjusted according to the requirements for charging the protein onto the column. Each column was eluted with a NaCl gradient which varied in length from 5-50 column volumes depending on the column type. After the final chromatography step, the resulting purity of the enzyme is >90% based on SDS-PAGE analysis. The enzyme was aliquoted and stored at −80° C.
Standard HCV NS5B RdRp enzyme assay. HCV RdRp genotype 1b assays were run in a final volume of 60 μl in 96 well plates (Costar 3912). The assay buffer is composed of 20 mM Hepes, pH 7.5, 2.5 mM KCl, 2.5 mM MgCl2, 1 mM DTT, 1.6 U RNAse inhibitor (Promega N2515), 0.1 mg/ml BSA (Promega R3961), and 2% glycerol. All compounds were serially diluted (3-fold) in DMSO and diluted further in water such that the final concentration of DMSO in the assay was 2%. HCV RdRp genotype 1b enzyme was used at a final concentration of 28 nM. A polyA template was used at 6 nM, and a biotinylated oligo-dT12 primer was used at 180 nM final concentration. Template was obtained commercially (Amersham 27-4110). Biotinylated primer was prepared by Sigma Genosys. 3H-UTP was used at 0.6 μCi (0.29 μM total UTP). Reactions were initiated by the addition of enzyme, incubated at 30° C. for 60 min, and stopped by adding 25 μl of 50 mM EDTA containing SPA beads (4 μg/μl, Amersham RPNQ 0007). Plates were read on a Packard Top Count NXT after >1 hr incubation at room temperature.
Modified HCV NS5B RdRp enzyme assay. A modified enzyme assay was performed essentially as described for the standard enzyme assay except for the following: The biotinylated oligo dT12 primer was precaptured on streptavidin-coated SPA beads by mixing primer and beads in assay buffer and incubating at room temperature for one hour. Unbound primer was removed after centrifugation. The primer-bound beads were resuspended in 20 mM Hepes buffer, pH 7.5 and used in the assay at final concentrations of 20 nM primer and 0.67 μg/μl beads. Order of addition in the assay: enzyme (14 nM) was added to diluted compound followed by the addition of a mixture of template (0.2 nM), 3H-UTP (0.6 μCi, 0.29 μM), and primer-bound beads, to initiate the reaction; concentrations given are final. Reactions were allowed to proceed for 4 hours at 30° C.
IC50 values for compounds were determined using seven different [I]. […]

HCV replicon cells = experiment: HCV replicon assay (FRET or luciferase readout); assay type: cell-based; conditions: Hepatitis C virus
Text: FRET Assay Preparation. To perform the HCV FRET screening assay, 96-well cell culture plates were used. The FRET peptide (Anaspec, Inc.) (Taliani et al., Anal. Biochem. 1996, 240, 60-67) contains a fluorescence donor, EDANS, near one end of the peptide and an acceptor, DABCYL, near the other end. The fluorescence of the peptide is quenched by […] resonance energy transfer (RET) between the donor and the acceptor, but as the NS3 protease cleaves the peptide the products are released from RET quenching and the fluorescence of the donor becomes apparent. The assay reagent was made as follows: 5× cell Luciferase cell culture lysis reagent from Promega (#E153A) diluted to 1× with dH2O, NaCl added to 150 mM final, the FRET peptide diluted to 20 μM final from a 2 mM stock.
To prepare plates, HCV replicon cells, with or without a Renilla luciferase reporter gene, were trypsinized and placed into each well of a 96-well plate with titrated test compounds added in columns 3 through 12; columns 1 and 2 contained a control compound (HCV protease inhibitor), and the bottom row contained cells without compound. The plates were then placed in a CO2 incubator at 37° C.
Assays. Subsequent to addition of the test compounds described above (FRET Assay Preparation), at various times the plate was removed and Alamar blue solution (Trek Diagnostics, #00-100) was added per well as a measure of cellular toxicity. After reading in a Cytoflour 4000 instrument (PE Biosystems), plates were rinsed with PBS and then used for FRET assay by the addition of 30 ul of the FRET peptide assay reagent described above (FRET Assay Preparation) per well. The plate was then placed into the Cytoflour 4000 instrument which had been set to 340 excite/490 emission, automatic mode for 20 cycles and the plate read in a kinetic mode. Typically, the signal to noise using an endpoint analysis after the reads was at least three-fold. Alternatively, after Alamar blue reading, plates were rinsed with PBS, 50 ul of DMEM (high glucose) without phenol red was added and plates were then used for luciferase assay using the Promega Dual-Glo Luciferase Assay System.
Compound analysis was determined by quantification of the relative HCV replicon inhibition and the relative cytotoxicity values. To calculate cytoxicity values, the average Alamar Blue fluorescence signals from the control wells were set as 100% non-toxic. The individual signals in each of the compound test wells were then divided by the average control signal and multiplied by 100% to determine […]. To calculate the HCV replicon inhibition values, an average background value was obtained from the two wells containing the highest amount of HCV protease inhibitor at the end of the assay period. These numbers were similar to those obtained from naïve Huh-7 cells.
The background numbers were then subtracted from the average signal obtained from the control wells and this number was used as 100% activity. The individual signals in each of the compound test wells were then divided by the averaged control values after background subtraction and multiplied by 100% to determine percent activity. EC50 values for a protease inhibitor titration were calculated as the concentration which caused a 50% reduction in FRET or luciferase activity. The two numbers generated for the compound plate, percent cytoxicity and percent activity were used to determine compounds of interest for further analysis.

T1 sequence (Q9WMX2 2420-2992): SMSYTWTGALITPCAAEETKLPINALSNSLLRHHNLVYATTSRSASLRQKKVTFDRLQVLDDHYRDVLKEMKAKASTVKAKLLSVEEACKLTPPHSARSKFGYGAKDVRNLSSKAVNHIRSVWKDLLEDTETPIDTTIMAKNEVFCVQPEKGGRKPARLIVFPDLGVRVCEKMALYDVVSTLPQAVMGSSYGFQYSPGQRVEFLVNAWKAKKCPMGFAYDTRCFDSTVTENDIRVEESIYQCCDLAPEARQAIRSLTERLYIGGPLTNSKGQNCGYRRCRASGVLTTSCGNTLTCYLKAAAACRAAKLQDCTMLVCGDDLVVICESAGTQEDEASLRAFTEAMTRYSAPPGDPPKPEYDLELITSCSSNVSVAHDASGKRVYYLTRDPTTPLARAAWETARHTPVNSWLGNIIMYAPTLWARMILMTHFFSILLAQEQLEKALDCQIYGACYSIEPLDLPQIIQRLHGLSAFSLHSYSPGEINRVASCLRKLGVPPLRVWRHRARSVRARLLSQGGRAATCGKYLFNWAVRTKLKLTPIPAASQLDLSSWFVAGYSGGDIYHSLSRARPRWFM

SMILES	IC50 ([1]; Table 1) [nM]	EC50 (HCV replicon cells; Table 1) [nM]	IC50 ([1]; Table 2) [nM]	EC50 (HCV replicon cells; Table 2) [nM]
CNC(=O)c1c(-c2ccc(F)cc2)nn2ccc(NC(=O)c3ccccc3OC)cc12	> 10000	> 10000	–	–
CNC(=O)c1c(-c2ccccc2)nn2ccc(-c3cccc(C(=O)NC(C)(C)c4ccccc4)c3)cc12	2 to 250	2 to 250	–	–
CNC(=O)c1c(-c2ccc(F)cc2)oc2cnc(-c3cccc(C(=O)NC4(c5ccccn5)CC4)c3)cc12	2 to 250	1000 to 10000	–	–
CNC(=O)c1c(-c2ccccc2)nn2cc(N3CCCCS3(=O)=O)ccc12	> 10000	> 10000	–	–
CNC(=O)c1c(-c2ccc(F)cc2)[nH]c2ccc(-c3cccc(C(=O)NC(C)(C)c4ccccc4)c3)cc12 [drawing 80]	250 to 1000	250 to 1000	–	–
CCN(c1cn2nc(-c3ccc(F)cc3)c(C(=O)NC)c2cc1-c1cc(C(=O)NC2(c3ccc(F)cc3)CC2)ccc1C)S(C)(=O)=O	2 to 250	2 to 250	–	–
CNC(=O)c1c(-c2ccc(F)cc2)nn2c(F)cc(-c3cc(C(=O)NC4(c5ccccn5)CC4)ccc3C)cc12	2 to 250	2 to 250	–	–
CNC(=O)c1c(-c2ccc(F)cc2)nn2ccc(NC(=O)c3ccc(OC)cc3)cc12	> 10000	> 10000	–	–
CNC(=O)c1c(-c2ccc(F)cc2)nn2ccc(NC(=O)OC(C)(C)C)cc12	> 10000	> 10000	–	–
CNC(=O)c1c(-c2ccc(F)cc2)nn2c(F)cc(-c3cc(C(=O)NC4(c5ccccc5)CC4)ccc3C)cc12	2 to 250	2 to 250	–	–
CNC(=O)c1c(-c2ccc(F)cc2)nn2ccc(-c3cc(C(=O)NC4(c5ccccc5)CC4)cc(F)c3C)c(F)c12 [drawing 175]	–	–	30	4.32
CNC(=O)c1c(-c2ccc(F)cc2)nn2ccc(-c3cc(C(=O)NC4(c5ccccn5)CC4)ccc3C)c(F)c12 [drawing 177]	–	–	5	7.15
CNC(=O)c1c(-c2ccc(F)cc2)nn2ccc(-c3cc(C(=O)NC4(C5CC5)CC4)c(OC)cc3C)c(F)c12	2 to 250	2 to 250	–	–
CCN(c1cn2nc(-c3ccc(F)cc3)c(C(=O)NC)c2cc1-c1cccc(C(=O)NC2(c3ccccn3)CC2)c1)S(C)(=O)=O	2 to 250	2 to 250	–	–
CCOc1ccccc1-c1ccc2c(C(=O)NC)c(-c3ccc(F)cc3)nn2c1	> 10000	> 10000	–	–
CNC(=O)c1c(-c2ccc(F)cc2)nn2ccc(-c3cc(C(=O)NC4(C)CC4)c(OC)cc3C)c(F)c12	2 to 250	2 to 250	–	–
CNC(=O)c1c(-c2ccc(F)cc2)nn2cc(NC(=O)C(C)(C)C)c(C3CC3)cc12	> 10000	> 10000	–	–
